In EP0800516B1, “FIBRINOGEN RECEPTOR ANTAGONISTS HAVING SUBSTITUTED (b)-AMINO ACID RESIDUES AND PHARMACEUTICAL COMPOSITIONS COMPRISING THE SAME” (Nippon Steel Corporation, priority 1994, dated 1996):

The compounds below were run on Human Platelet Aggregation (assay: in vitro human platelet aggregation using PRP (collagen-induced, light transmittance)). Details: aggregation induced with collagen (final concentration: 5 µ g/ml), 37°C.
Type: cell-based
Source text: (Measurement of in vitro Human Platelet Aggregation using PRP)
Healthy male volunteers who had not taken any medicines for at least two weeks were selected as subjects. Blood was collected from the forearm vein of each subject on an empty stomach using a #19 needle and a plastic syringe preliminarily charged with 1/10 volume of a 3.8% sodium citrate solution. Immediately after the blood collection, the syringe was shaken gently to mix the blood with the sodium citrate solution. The mixed blood was centrifuged (1100 rpm, 250 g) at room temperature for 15 minutes and the rotation was stopped without applying the brake. Then, the supernatant was collected with a Komagome type pipette to obtain platelet-rich plasma (PRP). The PRP was stored at room temperature. The blood remaining after centrifuging was further centrifuged (3500 rpm, 1500 g) at room temperature for 15 minutes and the rotation was stopped without applying the brake. The supernatant was collected to obtain platelet-poor plasma (PPP). After the preparation of the PRP, the number of platelets was counted and only samples containing more than 2 x 10^8 of platelets per milliliter were subjected to the following experiments.
Platelet aggregation was measured using an 8-channel platelet aggregation measuring instrument (Hematracer, Nikoh Bioscience, Tokyo, Japan) on the basis of the change in light transmittance through the PRP. First, the PPP and PRP (each 200µl) were placed in glass cuvettes and incubated at 37°C . Thereafter, the transmittance was measured. The transmittance of the PPP was determined as 100% and that of the PRP as 0%. Then, 10µl of physiological saline or a sample-containing physiological saline was added to the PRP and incubated at 37°C for one minute. A collagen solution (10 µ l) at a concentration of […] was added (final concentration: 5 µ g/ml) to induce aggregation and thereafter the transmittance was measured over 7 minutes. After aggregation with collagen and ADP was confirmed, only those samples in which the maximum aggregation with collagen was at least 70% were subjected to the experiment.
The sample was dissolved in physiological saline to give a concentration of 2.2 x 10 ^-2 M and a 2-fold dilution series was prepared for use in the experiments. The samples insoluble in the physiological saline were dissolved in physiological saline containing 10% DMSO (dimethyl sulfoxide).
The results were calculated as follows: [formula]
A graph was constructed by plotting the percent aggregation inhibition against the sample concentration and the concentration at which the aggregation was inhibited by 50% (IC50) was calculated from the graph.

Row | SMILES | IC50 [µM]
1 | CN(C)c1ccc(C(NC(=O)c2ccc(C(=N)N)cc2)C(C)(C)C(=O)N2CCC(CC(=O)O)CC2)cc1 (stereo not drawn) [Example 31, N-(N-4-amidinobenzoyl-β-p-N,N-dimethylaminophenyl-α, α-dimethyl-β-alanyl)-4-piperidineacetic acid] | 0.47
2 | CC(C)(CNC(=O)c1ccc(C(=N)N)cc1)C(=O)N1CCC(CC(=O)O)CC1 [Example 1, N-(N-4-amidinobenzoyl-α,α-dimethyl-β-alanyl)-4-piperidineacetic acid] | 0.57
3 | CC(C)(C(=O)N1CCC(CC(=O)O)CC1)C(NC(=O)c1ccc(C(=N)N)cc1)c1ccc(O)cc1 (stereo not drawn) [Example 27, N-(N-4-amidinobenzoyl-β-p-hydroxyphenyl-α, α-dimethyl-β-alanyl)-4-piperidineacetic acid] | 0.2
4 | CC(C)(C(=O)N1CCC(CC(=O)O)CC1)C(NC(=O)c1ccc(C(=N)N)cc1)C1CC1 (stereo not drawn) [Example 17] | 0.18
5 | CC(C)(C(=O)N1CCC(CC(=O)O)CC1)C(CCc1ccccc1)NC(=O)c1ccc(C(=N)N)cc1 (stereo not drawn) [Example 11, N-(N-4-amidinobenzoyl-β-phenethyl-α,α-dimethyl-β-alanyl)-4-piperidineacetic acid] | 0.16
6 | N=C(N)c1ccc(C(=O)NC(CC(=O)N2CCC(CC(=O)O)CC2)c2ccccc2)cc1 (stereo not drawn) [Comparative Example 3, N-(N-4-amidinobenzoyl-β-phenyl-β -alanyl)-4-piperidineacetic acid, reference compound] | 5.2
7 | CCC(C(=O)N1CCC(CC(=O)O)CC1)C(/C=C/c1ccccc1)NC(=O)c1ccc(C(=N)N)cc1 (stereo not drawn) [Comparative Example 6, N-(N-4-amidinobenzoyl-β-trans-styryl-α-ethyl-β-alanyl)-4-piperidineacetic acid, reference compound] | 85
8 | CC(C)(C(=O)N1CCC(CC(=O)O)CC1)C(C=Cc1ccccc1)NC(=O)c1ccc(C(=N)N)cc1 (stereo not drawn) [Example 14, N-(N-4-amidinobenzoyl-β-styryl-α,α-dimethyl-β-alanyl)-4-piperidineacetic acid] | 0.46
9 | CCCCC(NC(=O)c1ccc(C(=N)N)cc1F)C(C)(C)C(=O)N1CCC(CC(=O)O)CC1 (stereo not drawn) [Example 33, N-(N-4-amidino-2-fluorobenzoyl-β-n-butyl-α ,α-dimethyl-β-alanyl)-4-piperidineacetic acid] | 0.073
10 | CC(C)C(C(=O)N1CCC(CC(=O)O)CC1)C(NC(=O)c1ccc(C(=N)N)cc1)c1ccccc1 (stereo not drawn) [Comparative Example 8, N-(N-4-amidinobenzoyl-β-phenyl-α -isopropyl-β-alanyl)-4-piperidineacetic acid, reference compound] | 82
11 | CC(C)(C(=O)N1CCC(CC(=O)O)CC1)C(CC1CCCCC1)NC(=O)c1ccc(C(=N)N)cc1 (stereo not drawn) [Example 12, N-(N-4-amidinobenzoyl-β-cyclohexylmethyl-α, α-dimethyl-β-alanyl)-4-piperidineacetic acid] | 0.17
12 | CC(C)(C(=O)N1CCN(CC(=O)O)CC1)C(NC(=O)c1ccc(C(=N)N)cc1)c1ccccc1 (stereo not drawn) [Example 23, N-(N-4-amidinobenzoyl-β-phenyl-α,α-dimethyl-β-alanyl)-4-piperazineacetic acid] | 0.62
13 | CCC(C(=O)N1CCC(CC(=O)O)CC1)C(NC(=O)c1ccc(C(=N)N)cc1)c1ccccc1 (stereo not drawn) [Comparative Example 5, N-(N-4-amidinobenzoyl-β-phenyl-α -ethyl-β-alanyl)-4-piperidineacetic acid, reference compound] | 16
14 | CC(C)(C(=O)N1CCC(CC(=O)O)CC1)C(NC(=O)c1ccc(C(=N)N)cc1)c1cccc(Cl)c1 (stereo not drawn) [Example 9, N-(N-4-amidinobenzoyl-β-m-chlorophenyl-α,α -dimethyl-β-alanyl)-4-piperidineacetic acid] | 0.18
15 | CCCCNC(=N)c1ccc(C(=O)NC(c2cccc(Cl)c2)C(C)(C)C(=O)N2CCC(CC(=O)O)CC2)cc1 (stereo not drawn) [Example 18] | 1
16 | CC=CC(NC(=O)c1ccc(C(=N)N)cc1)C(C)(C)C(=O)N1CCC(CC(=O)O)CC1 (stereo not drawn) [Example 29, N-(N-4-amidinobenzoyl-β-1-propenyl-α,α-dimethyl-β-alanyl)-4-piperidineacetic acid] | 0.1
17 | CC(C)(C(=O)N1CCC(CC(=O)O)CC1)C(CCc1cccc(O)c1)NC(=O)c1ccc(C(=N)N)cc1 (stereo not drawn) [Example 37, N-(N-4-amidinobenzoyl-β-m-hydroxyphenethyl-α, α-dimethyl-β-alanyl)-4-piperidineacetic acid] | 0.19

Row | SMILES | IC50 [µM]
18 | CCCCCC(NC(=O)c1ccc(C(=N)N)cc1)C(C)(C)C(=O)N1CCC(CC(=O)O)CC1 (stereo not drawn) [Example 7, N-(N-4-amidinobenzoyl-β-normal-pentyl-α,α -dimethyl-β-alanyl)-4-piperidineacetic acid] | 0.17
19 | CN(C(=O)c1ccc(C(=N)N)cc1)C(c1ccccc1)C(C)(C)C(=O)N1CCC(CC(=O)O)CC1 (stereo not drawn) [Example 21, N-(N-4-amidinobenzoyl-N-methyl-β-phenyl-α, α-dimethyl-β-alanyl)-4-piperidineacetic acid] | 0.33
20 | CC(NC(=O)c1ccc(C(=N)N)cc1)C(C)(C)C(=O)N1CCC(CC(=O)O)CC1 (stereo not drawn) [Example 22, N-(N-4-amidinobenzoyl-β-methyl-α,α-dimethyl-β-alanyl)-4-piperidineacetic acid] | 0.52
21 | CC(CC(=O)N1CCC(CC(=O)O)CC1)NC(=O)c1ccc(C(=N)N)cc1 (stereo not drawn) [Comparative Example 2, N-(N-4-amidinobenzoyl-β-methyl-β -alanyl)-4-piperidineacetic acid, reference compound] | 50
22 | CC(C)(C(=O)N1CCC(CC(=O)O)CC1)C(NC(=O)c1ccc(C(=N)N)cc1)c1cccc(O)c1 (stereo not drawn) [Example 28, N-(N-4-amidinobenzoyl-β-m-hydroxyphenyl-α, α-dimethyl-β-alanyl)-4-piperidineacetic acid] | 0.076
23 | CCC(CNC(=O)c1ccc(C(=N)N)cc1)C(=O)N1CCC(CC(=O)O)CC1 (stereo not drawn) [Comparative Example 4, N-(N-4-amidinobenzoyl-α-ethyl-β -alanyl)-4-piperidineacetic acid, reference compound] | 0.89
24 | COc1ccccc1C(NC(=O)c1ccc(C(=N)N)cc1)C(C)(C)C(=O)N1CCC(CC(=O)O)CC1 (stereo not drawn) [Example 26, N-(N-4-amidinobenzoyl-β-o-methoxyphenyl-α, α-dimethyl-β-alanyl)-4-piperidineacetic acid] | 0.34
25 | CC(C)(C(=O)N1CCC(CC(=O)O)CC1)C(NC(=O)c1ccc(C(=N)N)cc1Cl)c1ccccc1 (stereo not drawn) [Example 34, N-(N-4-amidino-2-chlorobenzoyl-β-phenyl-α, α-dimethyl-β-alanyl)-4-piperidineacetic acid] | 0.36
26 | CC(NC(=O)c1ccc(C(=N)N)cc1F)C(C)(C)C(=O)N1CCC(CC(=O)O)CC1 (stereo not drawn) [Example 40, N-(N-4-amidino-2-fluorobenzoyl-β-methyl-α, α-dimethyl-β-alanyl)-4-piperidineacetic acid] | 0.075
27 | CCC(NC(=O)c1ccc(C(=N)N)cc1F)C(C)(C)C(=O)N1CCC(CC(=O)O)CC1 (stereo not drawn) [Example 39, N-(N-4-amidino-2-fluorobenzoyl-β-ethyl-α, α-dimethyl-β-alanyl)-4-piperidineacetic acid] | 0.061
28 | CCCCC(NC(=O)c1ccc(C(=N)N)cc1)C(C)(C)C(=O)N1CCC(CC(=O)O)CC1 (stereo not drawn) [Example 6, N-(N-4-amidinobenzoyl-β-normal-butyl-α,α-dimethyl-β-alanyl)-4-piperidineacetic acid] | 0.084
29 | CC(C)C(CNC(=O)c1ccc(C(=N)N)cc1)C(=O)N1CCC(CC(=O)O)CC1 (stereo not drawn) [Comparative Example 7, N-(N-4-amidinobenzoyl-α-isopropyl-β-alanyl)-4-piperidineacetic acid, reference compound] | 17
30 | C#CC(NC(=O)c1ccc(C(=N)N)cc1)C(C)(C)C(=O)N1CCC(CC(=O)O)CC1 (stereo not drawn) [Example 38, N-(N-4-amidinobenzoyl-β-ethynyl-α,α-dimethyl-β-alanyl)-4-piperidineacetic acid] | 0.15
31 | CC(C)(C(=O)N1CCC(CC(=O)O)CC1)C(NC(=O)c1ccc(C(=N)N)cc1)c1ccc2ccccc2c1 (stereo not drawn) [Example 16, N-(N-4-amidinobenzoyl-β-(2-naphthyl)-α,α -dimethyl-β-alanyl)-4-piperidineacetic acid] | 0.33
32 | CC(C)(C(=O)N1CCC(CC(=O)O)CC1)C(NC(=O)c1ccc(C(=N)N)cc1)c1ccoc1 (stereo not drawn) [Example 13, N-(N-4-amidinobenzoyl-β-(3-furyl)-α,α-dimethyl-β-alanyl)-4-piperidineacetic acid] | 0.27
33 | CC(C)(C(=O)N1CCC(CC(=O)O)CC1)C(NC(=O)c1ccc(C(=N)N)cc1)c1ccc(Cl)cc1 (stereo not drawn) [Example 25, N-(N-4-amidinobenzoyl-β-p-chlorophenyl-α,α -dimethyl-β-alanyl)-4-piperidineacetic acid] | 0.48
